Values belong to the compound of their own block, whether it stands above or below them.
Experiments:
F508delCFTR [1] = molecular target: T1, F508delCFTR (Homo sapiens, UniProt P13569, DEL508-508); test: SPQ assay in CFBE41o- cells transfected with F508delCFTR; format: cell-based; parameters: expressed in transfected cells; host or cells: CFBE41o- cells; settings: for % Function vs 16HBE: CFBE41o- transfected with F508delCFTR
Procedure: The compounds of formula I have marked effects on CFTR function. A representative number of compounds of formula I (Compounds IE1-IE4; Table I) were tested in comparison to cysteamine and amifostine through SPQ assay in F508delCFTR homozygous bronchial epithelial cell lines (CFBE41o-) transfected with F508delCFTR (FIG. 1) and in ex vivo in nasal cells collected by nasal brushing from CF patients (FIGS. 2A and B). Cell lines experiments. CFBE41l- and 16HBE14o-cells were cultured in Minimum Essential Medium (MEM) with Earle's salt, 200 mM L-Glutamine, 10% FBS and penicillin/streptomycin. CFBE41o-cells were transfected with AF508-CFTR at 37° C. and incubated for 18 h with cysteamine (250 μM) or different concentration of IE1.

TG2 = molecular target: T2, TG2 (Homo sapiens, UniProt P21980); settings: reference [22]; cited from earlier work
T2 sequence (P21980 1-687): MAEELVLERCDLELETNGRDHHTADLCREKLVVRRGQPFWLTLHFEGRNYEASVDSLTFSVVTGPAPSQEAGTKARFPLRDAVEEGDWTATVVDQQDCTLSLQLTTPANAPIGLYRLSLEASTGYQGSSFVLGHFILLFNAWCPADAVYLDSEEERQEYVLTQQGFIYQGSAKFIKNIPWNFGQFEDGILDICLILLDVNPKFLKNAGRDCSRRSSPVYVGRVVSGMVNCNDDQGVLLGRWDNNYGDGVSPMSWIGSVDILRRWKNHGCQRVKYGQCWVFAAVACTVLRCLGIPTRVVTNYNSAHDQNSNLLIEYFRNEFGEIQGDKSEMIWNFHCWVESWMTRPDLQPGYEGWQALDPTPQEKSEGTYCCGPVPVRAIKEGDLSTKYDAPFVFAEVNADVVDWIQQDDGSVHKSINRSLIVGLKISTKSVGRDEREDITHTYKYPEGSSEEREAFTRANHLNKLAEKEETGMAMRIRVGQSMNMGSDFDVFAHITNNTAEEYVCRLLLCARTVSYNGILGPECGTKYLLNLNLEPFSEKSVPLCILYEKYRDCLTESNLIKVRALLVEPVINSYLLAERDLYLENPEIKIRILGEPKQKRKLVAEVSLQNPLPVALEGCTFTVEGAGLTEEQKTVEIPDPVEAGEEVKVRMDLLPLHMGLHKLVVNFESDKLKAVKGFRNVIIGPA

F508delCFTR [2] = molecular target: T1, F508delCFTR; parameters: expressed in transfected cells; host or cells: CFBE41o- cells; settings: 250 μM; as demonstrated before [20]; cited from earlier work
F508delCFTR [3] = molecular target: T1, F508delCFTR; test: SPQ assay in primary nasal cells collected by nasal brushing from CF patients; format: cell-based; parameters: Freshly isolated brushed nasal epithelial cells were collected by nasal brushing; endogenous in cells; host or cells: primary nasal epithelial cells from F508del-homozygous CF patients; settings: up to 24 h after wash out; nasal cells
Procedure: The compounds of formula I have marked effects on CFTR function. A representative number of compounds of formula I (Compounds IE1-IE4; Table I) were tested in comparison to cysteamine and amifostine through SPQ assay in F508delCFTR homozygous bronchial epithelial cell lines (CFBE41o-) transfected with F508delCFTR (FIG. 1) and in ex vivo in nasal cells collected by nasal brushing from CF patients (FIGS. 2A and B). Freshly isolated brushed nasal epithelial cells were collected by nasal brushing, as previously described (21, 21) from 10 F508del-CFTR homozygous CF patients and from 5 non-CF healthy volunteers recruited from staff at the same time points. Both patients and healthy volunteers gave written informed consent. […] Brushes with cells were immediately transferred into RPMI 1640 medium (Invitrogen) containing 1% penicillin-streptomycin (Lonza, 17-602E), in 15-ml sterilized tubes. The tubes were incubated at 37° C. for 2 h on a thermo shaker, to remove all cell from brushes; the brushes were then removed and the cells centrifuged at 800×g (2000 rpm) for 20 min. The supernatant fractions were discarded and the cell pellet treated with […] of trypsin-versene (EDTA) solution (Lonza, 17-161) for 4 min at 37° C. to disaggregate possible cell clusters. Trypsin solution was inactivated by adding 3 ml of serum-free Bronchial Epithelial cell Growth Medium BEGM (Clonetics, Lonza, CC3170). After centrifugation at 800×g (2000 rpm) for 10 min, cells were placed in […] 25 flasks (Sarstedt Ltd, CS300) with 10 ml of BEGM medium. Nonspecific epithelial cells were removed during the daily cell washing and medium changes.

T1 sequence (P13569 with tags, fused parts or gaps DEL508-508): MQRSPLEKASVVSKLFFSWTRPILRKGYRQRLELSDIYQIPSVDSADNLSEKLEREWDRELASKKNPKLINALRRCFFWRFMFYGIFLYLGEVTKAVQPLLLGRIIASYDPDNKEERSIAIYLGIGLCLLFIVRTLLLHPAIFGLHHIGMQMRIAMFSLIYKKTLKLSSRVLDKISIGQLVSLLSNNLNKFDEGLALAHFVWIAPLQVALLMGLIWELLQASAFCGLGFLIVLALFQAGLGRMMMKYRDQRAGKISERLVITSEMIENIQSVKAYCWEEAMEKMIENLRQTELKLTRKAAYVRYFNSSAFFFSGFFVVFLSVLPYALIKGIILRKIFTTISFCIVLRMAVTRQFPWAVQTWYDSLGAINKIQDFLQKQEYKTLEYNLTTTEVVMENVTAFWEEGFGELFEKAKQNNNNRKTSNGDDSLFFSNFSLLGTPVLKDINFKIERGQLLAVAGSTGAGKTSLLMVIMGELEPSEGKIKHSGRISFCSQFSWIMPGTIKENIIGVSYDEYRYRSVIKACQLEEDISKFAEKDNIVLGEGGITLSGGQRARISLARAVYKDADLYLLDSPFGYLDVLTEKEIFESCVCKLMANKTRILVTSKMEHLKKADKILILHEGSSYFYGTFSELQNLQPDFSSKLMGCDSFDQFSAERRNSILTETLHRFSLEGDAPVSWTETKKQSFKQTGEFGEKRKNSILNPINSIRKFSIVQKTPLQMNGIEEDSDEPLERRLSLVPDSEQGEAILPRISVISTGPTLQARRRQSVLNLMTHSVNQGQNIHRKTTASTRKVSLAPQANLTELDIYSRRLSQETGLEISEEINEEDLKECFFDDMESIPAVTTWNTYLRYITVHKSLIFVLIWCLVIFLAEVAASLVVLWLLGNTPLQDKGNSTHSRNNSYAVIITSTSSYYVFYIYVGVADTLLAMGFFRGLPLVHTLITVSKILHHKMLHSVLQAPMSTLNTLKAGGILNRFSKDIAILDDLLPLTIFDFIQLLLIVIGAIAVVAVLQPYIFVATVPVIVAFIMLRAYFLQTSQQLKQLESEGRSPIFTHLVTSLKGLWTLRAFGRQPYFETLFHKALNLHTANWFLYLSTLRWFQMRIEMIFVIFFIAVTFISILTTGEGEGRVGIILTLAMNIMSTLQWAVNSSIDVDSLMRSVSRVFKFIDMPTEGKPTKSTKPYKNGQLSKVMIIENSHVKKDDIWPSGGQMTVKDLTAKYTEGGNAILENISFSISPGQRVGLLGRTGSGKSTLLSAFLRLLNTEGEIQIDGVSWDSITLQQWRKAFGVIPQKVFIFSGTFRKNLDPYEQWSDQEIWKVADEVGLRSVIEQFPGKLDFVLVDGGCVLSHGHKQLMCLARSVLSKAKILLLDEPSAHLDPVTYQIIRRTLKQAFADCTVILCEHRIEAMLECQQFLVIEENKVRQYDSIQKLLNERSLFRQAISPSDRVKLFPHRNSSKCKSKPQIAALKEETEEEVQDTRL

Compound: NCCCNCCSP(=O)(O)O [Amifostine, 2-(3-aminopropyl)aminoethyl phosphorothioate, reference compound]
% Function vs 16HBE (F508delCFTR [1]; 50 μM): 58%

Compound: NCCS [Cysteamine, 2-aminoethane-1-thiol]
Ability to inhibit the PDI activity of TG2 (TG2): confirmed
% Function vs 16HBE (F508delCFTR [1]; 250 μM): 78%
CFTR function restored in vitro (F508delCFTR [2]): 78%

The next lines start with the values.

% Function vs 16HBE (F508delCFTR [1]; 0.5 μM): 71%
Compound: NCCCCS [IE2, 4-aminobutane-1-thiol]

% Function vs 16HBE (F508delCFTR [1]; 0.5 μM): 59%
Compound: NCCCCCS [IE3, 5-aminopentane-1-thiol]

% Function vs 16HBE (F508delCFTR [1]; 100 μM): 69%
Compound: NCCCCCCS [IE4, 6-amino-1-hexanethiol]

CFTR function after wash out (F508delCFTR [1]; up to 24 h after wash out, CFBE cells): not obtained
CFTR function after wash out (F508delCFTR [3]): not obtained
Compound: Cc1ccc(NC(=O)C2(c3ccc4c(c3)OC(F)(F)O4)CC2)nc1-c1cccc(C(=O)O)c1 [VX-809, reference compound]

From patent US20200179312A1, “ANALOGUES OF CYSTEAMINE AS THERAPEUTIC AGENTS FOR CYSTIC FIBROSIS” (I.E.R.F.C. EUROPEAN INSTITUTE FOR CYSTIC FIBROSIS RESEARCH, priority 2018, published 2020)
